This note sets out measurements from ChEMBL document CHEMBL6153096, “Development of Potent and Selective CK1α Molecular Glue Degraders” (J Med Chem, 2025).

Active and inactive are the calls of the source. No cut-off for these calls is given here. Where only a bound is given, the exact number is not on record here.

One may read the DC50 as the midpoint of the concentration-degradation curve. In general, IC50 refers to the point on the concentration scale where inhibition reaches its midpoint. A higher IC50 goes with weaker potency in that assay. As usually defined, the Emax is the maximal effect, on the per cent scale that the assay sets.

For data set [1], the target named is T1, Cereblon/Casein kinase I alpha (Homo sapiens, UniProt P48729+Q96SW2). The data set is described as follows: Molecular glue activity at CRBN/CK1-alpha in human MOLM-14 cells assessed as induction of CK1-alpha degradation at 1 uM incubated for 5 hrs by Western blot analysis. The data set is classed as cell-based. (In general: A western blot detects proteins with antibodies after separation by electrophoresis.)
Target sequence in this assay (P48729 2-337 limits assumed): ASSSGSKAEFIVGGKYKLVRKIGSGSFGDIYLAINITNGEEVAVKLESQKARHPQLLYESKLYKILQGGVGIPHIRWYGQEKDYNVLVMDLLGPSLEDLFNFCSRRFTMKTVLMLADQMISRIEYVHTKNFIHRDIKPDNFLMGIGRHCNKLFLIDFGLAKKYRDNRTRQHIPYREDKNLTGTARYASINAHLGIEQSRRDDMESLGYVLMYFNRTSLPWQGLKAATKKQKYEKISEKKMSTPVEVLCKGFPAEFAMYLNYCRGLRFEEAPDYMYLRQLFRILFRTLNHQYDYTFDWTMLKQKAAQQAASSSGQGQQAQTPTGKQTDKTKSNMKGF
Target sequence in this assay (Q96SW2 whole entry partner): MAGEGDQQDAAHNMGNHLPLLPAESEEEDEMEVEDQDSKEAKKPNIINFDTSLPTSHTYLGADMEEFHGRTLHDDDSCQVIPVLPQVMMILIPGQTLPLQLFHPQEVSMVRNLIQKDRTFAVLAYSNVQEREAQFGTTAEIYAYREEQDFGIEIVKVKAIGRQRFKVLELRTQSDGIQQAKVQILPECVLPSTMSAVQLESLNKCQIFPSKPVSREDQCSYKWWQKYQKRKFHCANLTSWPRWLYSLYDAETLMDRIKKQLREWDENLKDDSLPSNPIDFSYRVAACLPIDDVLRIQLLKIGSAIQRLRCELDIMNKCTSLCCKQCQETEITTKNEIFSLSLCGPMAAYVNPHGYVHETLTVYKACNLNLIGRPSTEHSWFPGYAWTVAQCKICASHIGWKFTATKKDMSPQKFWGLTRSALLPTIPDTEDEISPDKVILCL

The nature of data set [2]: Metabolic stability in human liver microsomes assessed as intrinsic clearance. It is filed as ADME, Microsome. On the technique in general: Liver microsomes are a subcellular fraction often used to study metabolism.
Data set [3] has as its system MOLM-14. Put plainly: Antiproliferative activity against human MOLM-14 cells incubated for 72 hrs by CellTiter-Glo Luminescent Cell Viability Assay. It is filed as functional, cell-based. Background: In ATP-based viability assays light output follows the ATP content of the culture.
Data set [4] concerns the target T1, Cereblon/Casein kinase I alpha. Put plainly: Molecular glue activity at CRBN/CK1-alpha in human MOLM-13 cells assessed as increase in MDM2 level at 0.1 to 1 uM incubated for 24 hrs by Western blot analysis. The data set is classed as cell-based. To be noted: dose 0.1-1 µM.
Target sequence in this assay (P48729 2-337 limits assumed): as the sequence (P48729 2-337 limits assumed) above
Target sequence in this assay (Q96SW2 whole entry partner): as the sequence (Q96SW2 whole entry partner) above
The nature of data set [5]: Metabolic stability in human liver microsomes assessed as half life. The data set is classed as ADME, Microsome.
For data set [6], the target named is T1, Cereblon/Casein kinase I alpha. The data set is described as follows: Molecular glue activity at CRBN/CK1-alpha in human MOLM-13 cells assessed as increase in p21 level at 0.1 to 1 uM incubated for 24 hrs by Western blot analysis. It is filed as cell-based. The following applies: dose 0.1-1 µM.
Target sequence in this assay (P48729 2-337 limits assumed): as the sequence (P48729 2-337 limits assumed) above
Target sequence in this assay (Q96SW2 whole entry partner): as the sequence (Q96SW2 whole entry partner) above
Data set [7] has the same target. Put plainly: Molecular glue activity at CRBN/CK1-alpha in human MOLM-14 cells assessed as increase in MDM2 level at 0.1 to 1 uM incubated for 24 hrs by Western blot analysis. It is filed as cell-based. To be noted: dose 0.1-1 µM.
Target sequence in this assay (P48729 2-337 limits assumed): as the sequence (P48729 2-337 limits assumed) above
Target sequence in this assay (Q96SW2 whole entry partner): as the sequence (Q96SW2 whole entry partner) above
Data set [8] has the same target. Put plainly: Molecular glue activity at CRBN/CK1-alpha in human MOLM-14 cells assessed as increase in p53 level at 0.1 to 1 uM incubated for 24 hrs by Western blot analysis. It is filed as cell-based. To be noted: dose 0.1-1 µM.
Target sequence in this assay (P48729 2-337 limits assumed): as the sequence (P48729 2-337 limits assumed) above
Target sequence in this assay (Q96SW2 whole entry partner): as the sequence (Q96SW2 whole entry partner) above
The target is the same in data set [9]. The data set is described as follows: Molecular glue activity at CRBN/HiBiT-tagged CK1-alpha in human Jurkat cells assessed as induction of CK1-alpha degradation incubated for 5 hrs by Nano-Glo HiBiT assay. It is filed as cell-based.
Target sequence in this assay (P48729 whole entry): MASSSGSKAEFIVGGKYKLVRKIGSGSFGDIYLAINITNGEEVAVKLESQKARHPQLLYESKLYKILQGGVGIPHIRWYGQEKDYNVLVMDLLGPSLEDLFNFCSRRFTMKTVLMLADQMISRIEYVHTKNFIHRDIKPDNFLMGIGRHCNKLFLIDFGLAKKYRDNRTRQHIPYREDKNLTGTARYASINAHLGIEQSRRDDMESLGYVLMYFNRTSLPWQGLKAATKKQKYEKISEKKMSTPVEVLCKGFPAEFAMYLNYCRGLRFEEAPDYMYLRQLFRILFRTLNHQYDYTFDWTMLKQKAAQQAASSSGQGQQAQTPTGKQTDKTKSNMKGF
Target sequence in this assay (Q96SW2 whole entry): as the sequence (Q96SW2 whole entry partner) above
The target is the same in data set [10]. Put plainly: Molecular glue activity at CRBN/CK1-alpha in human MOLT-4 cells assessed as induction of CK1-alpha degradation at 1 uM incubated for <3 hrs by Western blot analysis. It is filed as cell-based.
Target sequence in this assay (P48729 2-337 limits assumed): as the sequence (P48729 2-337 limits assumed) above
Target sequence in this assay (Q96SW2 whole entry partner): as the sequence (Q96SW2 whole entry partner) above
Data set [11] deals with MOLM-14. The data set is described as follows: Antiproliferative activity against human MOLM-14 cells with CRBN-/- incubated for 72 hrs by CellTiter-Glo Luminescent Cell Viability Assay. The data set is classed as functional, cell-based.
Another data set deals with MOLM-13. Put plainly: Antiproliferative activity against human MOLM-13 cells incubated for 72 hrs by CellTiter-Glo Luminescent Cell Viability Assay. The data set is classed as functional, cell-based. The following applies: MOLM-13, 72 h.
Data set [12] in a line: Metabolic stability in mouse liver microsomes assessed as half life. The data set is classed as ADME, Microsome. To be noted: microsomes.
The target of data set [13] is T1, Cereblon/Casein kinase I alpha. Put plainly: Molecular glue activity at CRBN/CK1-alpha in human MOLM-13 cells assessed as increase in p53 level at 0.1 to 1 uM incubated for 24 hrs by Western blot analysis. The data set is classed as cell-based. The following applies: dose 0.1-1 µM.
Data set [14] has the same target. The data set is described as follows: Molecular glue activity at CRBN/CK1-alpha in human MOLT-4 cells assessed as induction of CK1-alpha degradation at 100 uM incubated for 5 hrs by Western blot analysis. The data set is classed as cell-based.
Data set [15] has the same target. The data set is described as follows: Molecular glue activity at CRBN/CK1-alpha in human MOLM-14 cells assessed as increase in p21 level at 0.1 to 1 uM incubated for 24 hrs by Western blot analysis. The following applies: dose 0.1-1 µM. It is filed as cell-based.
Data set [16] has the same target. Put plainly: Molecular glue activity at CRBN/CK1-alpha in human MOLM-13 cells assessed as induction of CK1-alpha degradation at 1 uM incubated for 5 hrs by Western blot analysis. It is filed as cell-based.
Data set [17] in a line: Metabolic stability in mouse liver microsomes assessed as intrinsic clearance. The data set is classed as ADME, Microsome.
Another data set concerns Jurkat. Put plainly: Induction of HiBiT-tagged WEE1 degradation in human Jurkat cells incubated for 5 hrs by Nano-Glo HiBiT assay relative to control. The data set is classed as cell-based.
The target in data set [18] is T1, Cereblon/Casein kinase I alpha. The data set is described as follows: Molecular glue activity at CRBN/CK1-alpha in human MOLT-4 cells with CRBN-/- assessed as induction of CK1-alpha degradation at 1 uM incubated for 5 hrs by quantitative mass spectrometry based proteomic analysis. It is filed as cell-based.
Data set [19] has as its target Zinc finger protein Helios (Homo sapiens) (UniProt Q9UKS7). The data set is described as follows: Induction of IKZF2 degradation in human MOLT-4 cells at 1 uM incubated for 5 hrs by quantitative mass spectrometry based proteomic analysis. The data set is classed as cell-based.
The subject of data set [20] is MOLT-4. The data set is described as follows: Induction of WEE1 degradation in human MOLT-4 cells at 1 uM incubated for 5 hrs by quantitative mass spectrometry based proteomic analysis. The data set is classed as cell-based.
A short description of data set [21]: Induction of HiBiT-tagged WEE1 degradation in human Jurkat cells incubated for 5 hrs by Nano-Glo HiBiT assay. The data set is classed as cell-based.
The subject of data set [22] is MOLT-4. The data set is described as follows: Induction of GSPT1 degradation in human MOLT-4 cells at 1 uM incubated for 5 hrs by quantitative mass spectrometry based proteomic analysis. It is filed as cell-based.

Sequence of Zinc finger protein Helios (Homo sapiens) (Q9UKS7 whole entry): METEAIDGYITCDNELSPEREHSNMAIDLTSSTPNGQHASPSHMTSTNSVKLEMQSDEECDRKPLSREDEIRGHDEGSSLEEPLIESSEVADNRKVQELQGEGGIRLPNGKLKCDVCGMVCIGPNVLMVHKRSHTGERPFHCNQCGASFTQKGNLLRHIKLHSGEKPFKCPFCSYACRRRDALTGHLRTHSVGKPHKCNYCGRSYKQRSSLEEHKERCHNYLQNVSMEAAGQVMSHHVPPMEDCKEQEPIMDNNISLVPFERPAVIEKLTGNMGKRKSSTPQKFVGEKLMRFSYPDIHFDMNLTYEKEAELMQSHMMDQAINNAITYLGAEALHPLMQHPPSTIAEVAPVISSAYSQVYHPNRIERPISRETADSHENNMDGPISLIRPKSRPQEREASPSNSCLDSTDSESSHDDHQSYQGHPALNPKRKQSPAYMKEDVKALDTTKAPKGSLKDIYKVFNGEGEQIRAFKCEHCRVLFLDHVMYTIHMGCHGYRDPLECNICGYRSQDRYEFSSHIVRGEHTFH

`O=C1CCC(N2Cc3cc(NC(=O)c4cn5ccccc5n4)ccc3C2=O)C(=O)N1` (stereo not given): the result (in [1]; in the data set with MOLM-14 [3]; in data set [4]; in data set [6]; in [7]; in data set [8]) was Active. Further, the result in [10], in [13], in data set [15] and in data set [16] was Active. For the same molecule, the CLH in data set [2] was less than 6 µL/min/mg; in data set [17], 9 µL/min/mg. The t1/2 is greater than 2 h in data set [5] and 1.26 h in data set [12]. The half-maximal degradation concentration (DC50) in [9] worked out at 5.7 nM. The outcome in the data set with MOLM-14 [11] was inactive. For the same molecule, half-maximal inhibition in the data set with MOLM-13 (IC50) was put at 41 nM. For the same molecule, the Activity entry in [14] is reported as “Active; Induces Maximum Degradation”.
Take `O=C1CCC(N2Cc3cc(-c4cc5ccccc5cn4)ccc3C2=O)C(=O)N1` (stereo not given): the Emax in the data set on Jurkat stood at 80%. Moreover, the Activity result in [18] is “Not active; Compound Induced Ck1-Alpha Degradation In A Crbn Dependent Manner”. Besides, the DC50 was 10 nM in [9] and 43000 nM in [21]. In addition, the outcome (in data set [19]; in the data set on MOLT-4 [20]; in the data set with MOLT-4 [22]) was Active.
